# Measured values from US10767151B2, “Device for cell culture” (priority 2008, dated 2020).
# Entries after “also recorded” stand apart in the source; their conditions may differ. Where a SMILES comes first, the peptide text is derived from it. [ ]: non-standard residue; d: D form. The star is where a group is joined. Nle = CCCC[C@H](N)C(=O)O; Cbz = O=C(OCc1ccccc1)*; CH2F = FC*
# Experiments:
# Type in all cases: cell-based, mouse
# [1] = system: cortical neurons; test: Saponin axotomy of cortical neurons in three-chamber device, axonal fragmentation by tubulin labeling (Example 20); settings: for occurrence of axon fragmentation after axotomy: 50 μM applied to the distal segments of axons at the time of axotomy, FIG. 29; for protective effect against axon fragmentation after axotomy: applied 24 h before axotomy (not shown)
# Description: The cortices of 14-day mouse embryos are dissected and dissociated as has already been described elsewhere, for example Eur J Neurosci 2001 June; 13(11): 2037-46 William S et al. The neurons are seeded into the somatic chamber (also called compartment) of the circuits at a density of 10^5 cells/cm^2. In this manner, about 4×10^4 neurons are seeded into the somatic chamber. The culture medium consists of DMEM containing 4.5 g/l D-glucose and pyruvate (Invitrogen, Carlsbad, USA), supplemented with 10% of FCS (fetal calf serum; PAA Laboratories, Pasching, Germany) and with 2% of B27 (Invitrogen). The medium is replaced every three days until the beginning of the experiment, and the cultures are conserved in an incubator at 37° C. and 5% CO2. The experiments are carried out after 7 to 8 days of culture in vitro. The calpain inhibitor N-acetyl-Leu-Leu-Nle-CHO (ALLN; Calbiochem), the general caspase inhibitor Z—V-A-D-fluoromethyl ketone (z-VAD; R1D Systems, Minneapolis, USA) and β-nicotinamide adenine dinucleotide hydrate (βNAD; Sigma) are introduced into the culture medium at the beginning of the experiments.
# In order to carry out the axotomy, a flow of 15 μl of medium containing 0.1% of saponin is produced for 2 minutes in the central chamber. In order to avoid the flow of detergent entering the microchannels, an overpressure is maintained in the somatic and axonal chambers throughout the experiment. After 2 minutes of flow, the medium containing the saponin is removed and the central macrochannel is rinsed with culture medium for 5 min. Fresh medium is then added to this channel.
# After a given culture time (optionally according to the moment at which the axotomy experiment is carried out), the neuron cultures are fixed with a 4% paraformaldehyde solution (Sigma) so as to undergo analysis by immunocytochemistry. The circuits are labeled by immunofluorescence with an anti-MAP2 antibody (rabbit IgG, 1:3000; Chemicon, Temecula, USA), and an anti-β-III-tubulin monoclonal antibody (mouse IgG, 1:3000; Sigma) for labeling the cytoskeletal proteins. The circuits are fluorescently labeled with Hoechst 33342 (1:25000; Sigma) for labeling the nucleus. In a separate experiment, the circuits were also labeled by immunofluorescence with an anti-glial fibrillary acidic protein antibody (GFAP, rabbit IgG, 1:5000; DakoCytomation, Glostrup, Denmark) which makes it possible to label the astrocytes. A part of the cultures was subjected to fixing and extraction. This procedure makes it possible to eliminate the tubulin free in the cytoplasm while at the same time fixing the microtubules. These cultures were labeled by immunofluorescence with an anti-a-tubulin monoclonal antibody conjugated to the fluorophore FITC (Sigma) and labeled with phalloidin linked to an Alexa Fluor 555 (Invitrogen) so as to reveal the microtubules and the actin cytoskeleton, respectively. The images were acquired using an inverted epifluorescence microscope (Zeiss, Goettingen, Germany) equipped with a CoolSnap HQ2 camera (Roper Scientific, Ottobrunn, Germany) and using the micro-manager acquisition software (http://www.micro-manager.org).
# The axonal degeneration is estimated by comparing the type of tubulin labeling of fragmented axons or of intact axons. Good survival, in culture, of the cortical neurons is dependent on the initial seeding density, which must be high. Consequently, a large number of cortical axons invade the central and distal chambers. Moreover, since the cortical axons have many branches, the immunohistochemical analysis of the axonal tubulin in the axonal chambers is therefore complex, and the axons are difficult to individualize. The proportion of axon entering the central chamber and emerging in the distal axonal chamber was estimated by calculating a ratio of intensity of overall fluorescence of the b3-tubulin labeling of identical surface areas captured in the central chamber and the distal axonal chamber. […]
# [2] = system: striatal erk kinase; test: Phosphorylation of striatal erk kinase in corticostriatal network, device D3 (Example 13); settings: after seven days in vitro; cortical depolarization
# Description: FIG. 18 represents microfluidic chambers separated by asymmetrical microchannels.
# This experiment was carried out with the device D3.
# The cortical neurons are seeded on the left and the striatal neurons on the right. After seven days in vitro, the cortical axons establish connections with the striatal neurons (β3-tubulin in green, striatal neurons in red (MAP2)).
# [3] = system: cortical axons; test: Axotomy of the central portion of cortical axons in three-chamber device D4, Wallerian degeneration model (Example 15)
# Description: The microfluidic device represented in image 4a of FIG. 20 is similar to that described previously with reference to FIGS. 1C to 1H and comprises three chambers. It is device D4. This makes it possible to apply molecules of interest on the central portion of the axons, for example a detergent (Triton X100, 0.1%), applied for 1 min. […] In this example, although the cortical axons sectioned in their central portion are still intact after one hour of section, they degenerate after 4 h. This constitutes a model of Wallerian degeneration (degeneration of the distal portion of axons). The potential of compounds which protect against this effect can be evaluated by applying them specifically in one or more of the chambers of the device. […] This experiment was carried out with device D4. The experiment, carried out on a corticostriatal network, makes it possible to illustrate that it is possible to objectivize a phenomenon of synaptic degeneration after application of a stress at the cortical level (in this case axotomy) (disappearance of Vglu-1 labeling which is specific for cortical presynaptic structures). […] FIGS. 20 and 21 illustrate the consequences of the axotomy of cortical axons of a corticostriatal network. […]
# [4] = system: corticostriatal network; test: Synaptic degeneration on a corticostriatal network after cortical axotomy, Vglut-1 presynaptic structures (Example 16); settings: NAD added to striatal compartment at the time of axotomy / pretreated
# Description: Photographs a and b of FIG. 21 represent cortical, central and striatal chambers of reconstructed corticostriatal networks in three-chamber microfluidic devices.
# The neurons were labeled on MAP2 (blue), β3-tubulin (green) and Vglut-1 (red).
# Photograph c is representative of cortical-presynaptic structures (Vglut1, red) attached to striatable dendrites (MAP2, blue) after 1, 2, 4 and 6 hours of axotomy or controlled culture or culture pretreated with NAD.
# Photograph d illustrates the quantification of a presynaptic cortical structure attached to MAP2-positive striatal dendrites after cortical axotomy.
# This experiment was carried out with device D4. The experiment, carried out on a corticostriatal network, makes it possible to illustrate that it is possible to objectivize a phenomenon of synaptic degeneration after application of a stress at the cortical level (in this case axotomy) (disappearance of Vglu-1 labeling which is specific for cortical presynaptic structures). […] FIGS. 20 and 21 illustrate the consequences of the axotomy of cortical axons of a corticostriatal network. This axotomy causes the propagation of a signal resulting in rapid degeneration of the presynaptic compartment (FIG. 21) of the corticostriatal junction, and then in degeneration of the cortical axons (FIG. 20).
# [5] = system: Cerebellar neurons; test: Axonal degeneration of cerebellar neurons after somatic staurosporin, microfluidic device D1 (Example 14); settings: for axon-protecting effect against staurosporin-induced axonal degeneration: compound applied concomitantly to the axons only, staurosporin on the somas
# Description: Cerebellar neurons are seeded into microfluidic devices according to the invention and treated with an apoptosis inducer (1 μM staurosporin, STS) at the somatic level. This induces axonal degeneration in the distal chamber (Phi). Apoptosis-blocking compounds (zVAD) or proteases of calpain type (Cal-Inh) are applied specifically to the axons (and not to the somas). The “axon-protecting” effect is quantified on the graph on the right in FIG. 19. Devices D1 are used. Neurons (in this case from the cerebellum) are seeded and their axons pass through the asymmetrical microchannels so as to reach the second chamber (or the 3rd if the device has three compartments). A stress (in this case staurosporin, which is a pro-apoptotic agent) is applied to the soma of the neurons. […] The effect of “axon-protecting” molecules can thus be evaluated. FIG. 19 illustrates the start of axonal degeneration induced by the application of a pro-apoptotic stress applied to the somato-dendritic compartment of neurons. This causes the propagation of a destructive signal in the axon, which then degenerates early, before the cell soma.
compound,measurement,setting,value
"CCCC[C@@H](C=O)NC(=O)[C@H](CC(C)C)NC(=O)[C@H](CC(C)C)NC(C)=O [ALLN, N-acetyl-Leu-Leu-Nle-CHO] (Ac-Leu-Leu-[Nle]-aldehyde)",occurrence of axon fragmentation after axotomy,[1],does not delay the occurrence of axon fragmentation
same,protective effect against axon fragmentation after axotomy,[1],absence of protective effect
[Cl-].[K+] [KCl],phosphorylation of the striatal erk kinase,[2],triggers phosphorylation
C[C@]12N[C@H](Cc3ccccc31)c1ccccc12 [MK801],phosphorylation of the striatal erk kinase,[2],inhibition
"NC(=O)c1ccc[n+]([C@@H]2O[C@H](COP(=O)([O-])OP(=O)(O)OC[C@H]3O[C@@H](n4cnc5c(N)ncnc54)[C@H](O)[C@@H]3O)[C@@H](O)[C@H]2O)c1 [NAD, β-nicotinamide adenine dinucleotide hydrate]",degeneration of transected cortical axons (axon-protecting effect),"[3]; after axotomy, NAD added to the striatal compartment at the time of axotomy, FIG. 20, hydrate",axon-protecting effect; also recorded: delays
same,presynaptic degeneration of the corticostriatal junction (Vglut-1),"[4]; FIG. 21, hydrate",delays presynaptic degeneration
same,presynaptic degeneration of the corticostriatal junction (Vglut-1),"[4]; FIG. 21, listed as NAD+, hydrate",Delays Deconnection
same,degeneration of cut axons,"[1]; 5 mM pretreatment 24 h before axotomy, 8 h after axotomy (all control axons fragmented)",do not exhibit any sign of degeneration
same,persistence of axon protection,"[1]; 5 mM pretreatment 24 h before axotomy, 24 hours after axotomy",protection disappears
same,signs of axonal degeneration after axotomy,[1]; neurons pretreated 24 h before axotomy with 5 mM,delayed
same,axon-protecting effect against staurosporin-induced axonal degeneration,[5],delays this axonal degeneration
CN[C@@H]1C[C@H]2O[C@@](C)([C@@H]1OC)n1c3ccccc3c3c4c(c5c6ccccc6n2c5c31)C(=O)NC4 [staurosporin],axon degeneration induced by stress applied to the soma,"[5]; 1 μM staurosporin at the somatic level, axons in distal chamber, in 24 h",induces axon degeneration
COC(=O)C[C@H](NC(=O)[C@H](C)NC(=O)[C@@H](NC(=O)OCc1ccccc1)C(C)C)C(=O)CF [zVAD] (Cbz-Val-Ala-Asp(OMe)-CH2F),occurrence of axon fragmentation after axotomy,[1],does not delay the occurrence of axon fragmentation
same,protective effect against axon fragmentation after axotomy,[1],absence of protective effect
same,axon-protecting effect against staurosporin-induced axonal degeneration,[5],prevents this degeneration; also recorded: delays this axonal degeneration
Triton X100,section of axons by detergent,[3]; Triton X100 0.1% applied for 1 min on central portion of the axons,immediate section of the central portion of the axons
saponin,destruction of axon segments by detergent flow,"[1]; 0.1% saponin, flow for 2 minutes in the central compartment",immediate destruction of the axon segments contained in the central compartment
